Results published in patent publication US5573748A, “Radiolabeled technetium chelates for use in renal function determinations” (University of Utah Research Foundation, priority 1994, dated 1996).

Legend:
[1] = Biodistribution in normal mice after intravenous injection (renal uptake); type: in vivo
Description: Tc-99m-MAGGG was administered simultaneously with I-131 OIH (as a reference standard) to six mice in two groups. Each mouse was injected intravenously with 0.1 milliliters of a preparation containing 0.5 microcuries of Tc-99m-MAGGG and 0.2 microcuries of I-131 OIH, and then placed into a metabolic cage capable of collecting excreted urine.
Ten minutes after injection, each mouse's urethra was ligated and the mouse was sacrificed by chloroform vapor; various samples were then taken to determine biodistribution of radiolabeled material. The results of these samples are shown in Table I. Similar measurements, shown in Table II, were taken on the second group of mice 120 minutes after injection.

[2] = Biodistribution in probenicid-treated mice (inhibited renal tubular transport); type: in vivo; conditions: probenicid-treated mice (50 mg/kg), 10 minutes after injection
Description: In order to test the biodistribution of Tc-99m-MAGGG in mice having inhibited renal tubular transport, six mice were injected with a solution of probenicid at the rate of 50 milligrams of probenicid per kilogram of body weight. Ten minutes later, each mouse was injected with 0.1 milliliters of a solution containing 0.5 microcuries of Tc-99m-MAGGG and 0.2 microcuries of I-131 OIH. After an additional ten minutes, each mouse was sacrificed and various samples taken to determine biodistribution of radiolabeled material.

[3] = Renal excretion in humans (normal volunteers); type: in vivo
Description: The renal excretion of Tc-99m-MAGGG in humans was obtained based upon experiments on normal volunteers. For purposes of comparison, tests were also conducted using I-131 OIH either immediately before or after the study using Tc-99m-MAGGG.
In Example 6, the Tc-99m-MAGGG used was prepared with stannous reduction similar to the procedure set forth in Example 2, with glucoheptonate being used as an intermediate exchange ligand. In Example 7, dithionite was used as a reducing agent instead of using stannous reduction. Both examples provided Tc-99m-MAGGG having the same major peak on a HPLC column.
In both examples, the subject was injected with a dosage containing about 15 millicuries of Tc-99m-MAGGG. The comparative tests utilizing I-131 OIH involved administration of about 300 microcuries of I-131 OIH. In both instances, imaging of the kidneys ureters, and blood pool was conducted for a period of about 30 minutes, following which the count rate in the bladder was measured.
Thereafter, the bladder was voided, and an additional image was taken to detect the presence of residual radioactivity in order to allow determination of the percent of urine radioactivity at 30 minutes. Measurements were also taken at 3 hours.

[4] = cited from earlier work

Molecule	Blood ([1]; 10 minutes after injection)	Intestine ([1]; 10 minutes after injection)	Kidneys ([1]; 10 minutes after injection)	Liver ([1]; 10 minutes after injection)	Stomach ([1]; 10 minutes after injection)	Urine ([1]; 10 minutes after injection)	Blood ([1]; 120 minutes after injection)	Intestine ([1]; 120 minutes after injection)	Kidneys ([1]; 120 minutes after injection)	Liver ([1]; 120 minutes after injection)	Stomach ([1]; 120 minutes after injection)	Urine ([1]; 120 minutes after injection)	level in the urine relative to corresponding level of I-131 OIH ([1]; 10 minutes) [%]	level in the urine relative to corresponding level of I-131 OIH ([1]; 120 minutes) [%]	further results
Nc1ccc(C(=O)NCC(=O)O)cc1 [PAH, para-aminohippuric acid]	–	–	–	–	–	–	–	–	–	–	–	–	–	–	fraction in the blood removed by the kidneys ([4]; in vivo): ~90%; fraction removed from the plasma by active secretion into the tubules ([4]; in vivo): ~70%
Tc-99m diethylenetriaminepentaacetic acid [Tc-99m-DTPA]	–	–	–	–	–	–	–	–	–	–	–	–	–	–	maximum extraction efficiency ([4]; glomerular filtration only): 20-25%
Tc-99m-N,N'-bis(mercaptoacetyl)-2,3-diaminopropanoate [Tc-99m-CO2 -DADS-A]	–	–	–	–	–	–	–	–	–	–	–	–	–	–	excreted less effectively than I-131 OIH ([4]; in vivo): ~20%
Tc-99m-N,N'-bis(mercaptoacetyl)-2,3-diaminopropanoate [Tc-99m-CO2 -DADS-B]	–	–	–	–	–	–	–	–	–	–	–	–	–	–	removal by the kidneys compared with Tc-99m-CO2-DADS-A isomer ([4]; in vivo): far less efficiently removed by the kidneys
Tc-99m-mercaptoacetylglycylglycylglycylglycine [Tc-99m-MAGGGG]	2.7 percentage of radioactive agen	10.3 percentage of radioactive agen	3.3 percentage of radioactive agen	9.9 percentage of radioactive agen	.2 percentage of radioactive agen	58.4 percentage of radioactive agen	.04 percentage of radioactive agen	16.0 percentage of radioactive agen	.2 percentage of radioactive agen	1.1 percentage of radioactive agen	.05 percentage of radioactive agen	82.5 percentage of radioactive agen	86.7	87.6	–

The next lines start with results.

Blood ([1]; 10 minutes after injection)	Intestine ([1]; 10 minutes after injection)	Kidneys ([1]; 10 minutes after injection)	Liver ([1]; 10 minutes after injection)	Stomach ([1]; 10 minutes after injection)	Urine ([1]; 10 minutes after injection)	Blood ([1]; 120 minutes after injection)	Intestine ([1]; 120 minutes after injection)	Kidneys ([1]; 120 minutes after injection)	Liver ([1]; 120 minutes after injection)	Stomach ([1]; 120 minutes after injection)	Urine ([1]; 120 minutes after injection)	level in the urine relative to corresponding level of I-131 OIH ([1]; 10 minutes) [%]	level in the urine relative to corresponding level of I-131 OIH ([1]; 120 minutes) [%]	Molecule	further results
4.1 percentage of radioactive agen	1.0 percentage of radioactive agen	2.2 percentage of radioactive agen	1.8 percentage of radioactive agen	0.5 percentage of radioactive agen	74.4 percentage of radioactive agen	0.14 percentage of radioactive agen	0.16 percentage of radioactive agen	0.06 percentage of radioactive agen	0.11 percentage of radioactive agen	0.98 percentage of radioactive agen	96.0 percentage of radioactive agen	–	–	O=C(O)CNC(=O)c1ccccc1[131I] [I-131 OIH, I-131 ortho-iodohippurate, reference compound]	Blood [2]: 7.0 percentage of radioactive agen; Intestine [2]: 2.0 percentage of radioactive agen; Kidneys [2]: 3.6 percentage of radioactive agen; Liver [2]: 3.7 percentage of radioactive agen; Stomach [2]: 0.75 percentage of radioactive agen; Urine [2]: 59.2 percentage of radioactive agen; urine radioactivity (renal excretion) ([3]; 30 minutes): 65.5 ± 6.3 percentage of radioactive agen; urine radioactivity (renal excretion) ([3]; 3 hours): 93.5 ± 3.2 percentage of radioactive agen; renal extraction efficiency ([4]; in vivo): 65%-80
2.6 percentage of radioactive agen	1.6 percentage of radioactive agen	5.2 percentage of radioactive agen	2.6 percentage of radioactive agen	.2 percentage of radioactive agen	75.1 percentage of radioactive agen	.2 percentage of radioactive agen	2.2 percentage of radioactive agen	.3 percentage of radioactive agen	.1 percentage of radioactive agen	.2 percentage of radioactive agen	96.0 percentage of radioactive agen	106.4	102.2	Tc-99m-mercapoacetylglycylglycylalanine [Tc-99m-MAGG-Alanine]	–
2.6 percentage of radioactive agen	1.1 percentage of radioactive agen	3.5 percentage of radioactive agen	2.9 percentage of radioactive agen	0.1 percentage of radioactive agen	79.9 percentage of radioactive agen	0.03 percentage of radioactive agen	1.2 percentage of radioactive agen	0.06 percentage of radioactive agen	0.08 percentage of radioactive agen	0.02 percentage of radioactive agen	98.5 percentage of radioactive agen	107.3	102.6	Tc-99m-mercaptoacetylglycylglycylglycine [Tc-99m-MAGGG]	Blood [2]: 6.0 percentage of radioactive agen; Intestine [2]: 1.6 percentage of radioactive agen; Kidneys [2]: 5.4 percentage of radioactive agen; Liver [2]: 5.9 percentage of radioactive agen; Stomach [2]: 0.24 percentage of radioactive agen; Urine [2]: 64.7 percentage of radioactive agen; urine radioactivity (renal excretion) ([3]; 30 minutes): 71.8 ± 4.2 percentage of radioactive agen; urine radioactivity (renal excretion) ([3]; 3 hours): 98.6 ± 1.6 percentage of radioactive agen
